According to PMC11784115, “Trypsin-instructed bioactive peptide nanodrugs with cascading transformations to improve chemotherapy against colon cancer” (Journal of Nanobiotechnology, 2025):
pIC50: −log10 of the molar value. Where two headings read alike, the source gives them in different places. Where a SMILES comes first, the peptide text is derived from it. The star is where a group is joined. Acetyl(2-naphthyl) = O=C(Cc1ccc2ccccc2c1)*

Assays:
[1] = In vitro release from 1-Pept/Dox NFs (HPLC), Ritger-Peppas fitting; type: physicochemical
Protocol: The in vitro drug release profile of 1-Pept/Dox NFs was conducted in a constant temperature vibrator (40 rpm, 37 °C). 1-Pept/Dox NFs (200 µL, 1.0 wt%/0.1 eq) were prepared and incubated with 200 µL PBS buffer (pH = 7.4, 6.5 and 5.5). At particular time points, 200 µL liquid supernatant was sucked out and further analyzed by HPLC. Simultaneously, 200 µL fresh PBS was added to maintain a fixed volume. Free Dox solutions were used as controls.

HT29 cells = type: cell-based, human
Protocol: HT29 cells were incubated in a 96-well microplate and cultured with 1-Pept/Dox NFs for 48 h. The concentrations of Dox were between 12.5 and 0.391 µM, and 1-Pept were between 125 and 3.91 µM. Then, a fixed volume of 20 µL MTT (5 mg/mL) was added to the wells for co-incubation. After 4 h, the generated formazan could be found. After dissolving in DMSO, the absorbance values were recorded at 490 nm utilizing a microplate reader (Multiskan FC). By comparing the absorbance of the samples and the controls, the cell’s survival rates were calculated. The IC50 values were obtained by Origin 8.0 software. Simultaneously, the MTT assays for NCM460, SW620, SW480, and HCT-15 were performed using the aforementioned procedures.

HT29-xenografted tumor = experiment: In vivo antitumor efficacy, HT29 xenograft; design: species or system BALB/C nude mice; conditions: for percentage of Ki67-positive signals in tumor tissues: tumor tissue, day 21
Protocol: HT29 tumor-bearing mice model was developed to study the antitumor effect in vivo of 1-Pept/Dox NFs. HT29 cell suspension (100 µL, 5.0 × 10^6 cells) was mixed with an equal volume of Matrigel. Then, the mixtures were subcutaneously injected into the right back of male BALB/C nude mice (6–8 weeks, Jinan Pengyue Experimental Animal Breeding Co., Itd, China). […] (1) PBS; (2) 1-Pept NFs; […] The dosage was fixed as 13 µmol/kg for Dox moiety and 130 µmol/kg for 1-Pept. The tumor size and body weight of the mice were determined every three days. The tumor size was obtained using the equation V = L×W^2/2, where L and W denote the length and width, respectively. At the end of the day 21st, the tumor tissues were collected for HE staining to observe morphological changes in tumor cells. The actin and tubulin staining of the cell sections was also conducted to study the cytoskeleton changes after drug treatment. The Ki-67 staining was conducted to observe the proliferative status of tumor cells. Meanwhile, the signals of TUNEL and expressions of activated caspase-3 were also measured by immunohistochemical staining.

rabbit red blood cells = system: rabbit red blood cells
Protocol: To begin with, the biocompatibility of 1-Pept/Dox NFs was explored from hematological compatibility and histocompatibility. The hemolysis ratio of 1-Pept/Dox NFs was evaluated based on rabbit red blood cells (RBCs). […] Then, the samples were first centrifuged to obtain the supernatant and measured the absorbance at 540 nm. Deionized water served as a positive group and 0.9% of the NaCl solution was utilized as a negative group. The hemolysis ratio of samples was obtained according to the hemolysis rate equation.

[2] = Minimum gelation concentration (MGC) by vial inversion; type: physicochemical; conditions: PBS, neutral pH, Tps 5 U/mL or Dox 0.1 eq where present
Protocol: The enzyme-directed assembly behavior of 1-Pept was subsequently investigated. 1-Pept was dissolved in PBS solution, and the pH was adjusted to neutral condition. The formation of 1-Pept nanofibrillar hydrogels was monitored via a vial inversion method. 1-Pept/Tps NFs were obtained after mixing Tps (5 U/mL) with 1-Pept solution. The MGC of 1-Pept NFs and 1-Pept/Tps NFs could be determined when the samples could not flow.
1-Pept (1.0 wt%) was dissolved in PBS solution and mixed with 0.1 equivalents of Dox to obtain 1-Pept/Dox NFs (1.0 wt%/0.1 eq), and the solutions were kept at 25 °C to obtain 1-Pept/Dox NFs. The MGC, CAC, microscopic morphology, CD analysis, and viscoelasticity were tested according to the above procedures. The intermolecular force between 1-Pept and Dox was examined with fluorescent spectroscopy. Simply, Dox solution (20 µg/mL) was incubated with different concentrations (125, 62.5, 31.3, 15.6, 7.81, and 3.90 µg/mL) of 1-Pept solutions, and the fluorescent spectrum of the sample was recorded at a fixed excitation wavelength of […]. Ulteriorly, the electrostatic interactions between 1-Pept and Dox were explored by adding sodium chloride solution (2 M).

trypsin (Tps) = experiment: in vitro; conditions: isolated enzyme
Protocol: 1-Pept (1 mg/mL) was dissolved in PBS solution, and the pH was modulated to a neutral condition. After that, Tps (1 U/mL) was added to the solution to trigger the conversion of 1-Pept (NapFFGYKCD) into Pept (NapFFGYK). At fixed time points, 50 µL 1-Pept solution was taken out and mixed with 150 µL methanol to obtain the mixed solution. Finally, the mixed solution was analyzed with HPLC-MS to investigate the conversion rate.

[3] = free Dox solution, 12-h release

minimum gelation concentration (MGC) [2]	pIC50 (HT29 cells; 48 h)	metabolised at 72 h, 1 mg/mL (trypsin (Tps))	SMILES	cumulative release of Dox at 12 h ([1]; free Dox solution control, PBS, 37 °C, 40 rpm, HPLC)	Ritger-Peppas exponential factor n, Dox release [1, 3]	Ritger-Peppas k, Dox release [1, 3]	pIC50 (HT29 cells; HT29, 48 h, MTT, read-out: IC50 value of Dox)	tumor volume growth rate on the 21st day (HT29-xenografted tumor; peritumoral s.c. injection days 1, 4, 7, 10, 13 µmol/kg Dox, 130 µmol/kg 1-Pept)	percentage of Ki67-positive signals in tumor tissues (HT29-xenografted tumor)	hemolysis rate (rabbit red blood cells)	hemolysis rate (rabbit red blood cells; red cells of rabbit, 1 h, 1.0 wt%)
			COc1cccc2c1C(=O)c1c(O)c3c(c(O)c1C2=O)C[C@@](O)(C(=O)CO)C[C@@H]3O[C@H]1C[C@H](N)[C@H](O)[C@H](C)O1 [Dox, Doxorubicin]	51%	0.35	0.21	5.55	3.3	45%	2.8%	
0.8 wt%	3.87	> 90%	NCCCC[C@H](NC(=O)[C@H](Cc1ccc(O)cc1)NC(=O)CNC(=O)[C@H](Cc1ccccc1)NC(=O)[C@H](Cc1ccccc1)NC(=O)Cc1ccc2ccccc2c1)C(=O)N[C@@H](CS)C(=O)N[C@@H](CC(=O)O)C(=O)O [1-Pept, 2-Naphthylacetic acid-Phe-Phe-Gly-Tyr-Lys-Cys-Asp] ({Acetyl(2-naphthyl)}-FFGYKCD-OH)						60%		1.1%
